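Method: 48-hour compound exposure of cells in 96-well plates, five concentrations, linear interpolation of endpoints. The concentration for 50% growth inhibition is given as GI50.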 Activity calls are given as the source filed them. Rule as the data show it: active = GI50 up to about 1.1 µM and inactive = higher.
Tests used:
Test in all cases: growth of human tumour cells (NCI), 48 h
[1] = tested on: PC-3
[2] = tested on: MOLT-4
[3] = tested on: 786-0
[4] = tested on: MDA-N
[5] = tested on: MCF7
[6] = tested on: HL-60
[7] = tested on: HCT-116
[8] = tested on: T47D
[9] = tested on: UO-31
[10] = tested on: SF-539
[11] = tested on: OVCAR-3
[12] = tested on: SN12C
[13] = tested on: K562
[14] = tested on: CCRF-CEM
[15] = tested on: RPMI-8226
[16] = tested on: ACHN
[17] = tested on: SK-MEL-2
[18] = tested on: NCI-H226
[19] = tested on: SF-295

O=P(O)(O)OP(=O)(O)O
GI50 [1]: > 100 µM (inactive)
GI50 [2]: > 100 µM (inactive)
GI50 [3]: > 100 µM (inactive)
GI50 [4]: > 100 µM (inactive)
GI50 [5]: > 100 µM (inactive)
GI50 [6]: > 100 µM (inactive)
GI50 [7]: > 100 µM (inactive)
GI50 [8]: > 100 µM (inactive)
GI50 [9]: > 100 µM (inactive)
GI50 [10]: > 100 µM (inactive)
GI50 [11]: > 100 µM (inactive)
GI50 [12]: > 100 µM (inactive)
GI50 [13]: > 100 µM (inactive)
GI50 [14]: > 100 µM (inactive)
GI50 [15]: > 100 µM (inactive)
GI50 [16]: > 100 µM (inactive)
GI50 [17]: > 100 µM (inactive)

COc1ccc(P2(=S)OCCOP(=S)(c3ccc(OC)cc3)S2)cc1 (stereo not given)
GI50 [1]: 2.26 µM (inactive)
GI50 [2]: 2.87 µM (inactive)
GI50 [3]: 4.79 µM (inactive)
GI50 [4]: 2.29 µM (inactive)
GI50 [18]: 5.16 µM (inactive)
GI50 [5]: 3.62 µM (inactive)
GI50 [6]: 2.64 µM (inactive)
GI50 [7]: 3.28 µM (inactive)
GI50 [19]: 2.53 µM (inactive)
GI50 [8]: 41.8 µM (inactive)
GI50 [9]: 0.638 µM (active)
GI50 [10]: 2.76 µM (inactive)
GI50 [11]: 2.52 µM (inactive)
GI50 [12]: 2.56 µM (inactive)
GI50 [13]: 2.51 µM (inactive)
GI50 [14]: 2.97 µM (inactive)
GI50 [16]: 5.98 µM (inactive)
GI50 [17]: 3.51 µM (inactive)

COC(=O)C(NC(=O)CSc1nnc(COc2ccc(Cl)cc2)n1-c1ccccc1)C(C)C (stereo not given)
GI50 [1]: 21.7 µM (inactive)
GI50 [2]: 21.6 µM (inactive)
GI50 [3]: 18.1 µM (inactive)
GI50 [4]: 16.2 µM (inactive)
GI50 [18]: 17 µM (inactive)
GI50 [5]: 40.7 µM (inactive)
GI50 [6]: 16.7 µM (inactive)
GI50 [7]: 13 µM (inactive)
GI50 [19]: 22 µM (inactive)
GI50 [8]: 20.8 µM (inactive)
GI50 [9]: 26.7 µM (inactive)
GI50 [10]: 31.2 µM (inactive)
GI50 [11]: 16.5 µM (inactive)
GI50 [12]: 18.6 µM (inactive)
GI50 [13]: 53.8 µM (inactive)
GI50 [14]: 23.4 µM (inactive)
GI50 [16]: 39.3 µM (inactive)
GI50 [17]: 18.7 µM (inactive)

CC1(C)c2ccccc2C(=O)C12CCC(=O)CC2
GI50 [1]: > 100 µM (inactive)
GI50 [2]: > 100 µM (inactive)
GI50 [3]: > 100 µM (inactive)
GI50 [4]: > 100 µM (inactive)
GI50 [18]: > 100 µM (inactive)
GI50 [5]: > 100 µM (inactive)
GI50 [6]: > 100 µM (inactive)
GI50 [7]: > 100 µM (inactive)
GI50 [19]: > 100 µM (inactive)
GI50 [8]: > 100 µM (inactive)
GI50 [9]: 33.7 µM (inactive)
GI50 [10]: > 100 µM (inactive)
GI50 [12]: > 100 µM (inactive)
GI50 [13]: > 100 µM (inactive)
GI50 [14]: > 100 µM (inactive)
GI50 [16]: > 100 µM (inactive)
GI50 [17]: > 100 µM (inactive)

CN(CCNCc1cn(C)c2c1ccc1ccccc12)CCNCc1cn(C)c2c1ccc1ccccc12
GI50 [1]: 1.47 µM (inactive)
GI50 [2]: 1.09 µM (active)
GI50 [3]: 0.881 µM (active)
GI50 [4]: 1.77 µM (inactive)
GI50 [5]: 0.333 µM (active)
GI50 [6]: 1.06 µM (active)
GI50 [7]: 1.45 µM (inactive)
GI50 [19]: 1.79 µM (inactive)
GI50 [8]: 1.86 µM (inactive)
GI50 [9]: 1.39 µM (inactive)
GI50 [10]: 1.77 µM (inactive)
GI50 [11]: 1.84 µM (inactive)
GI50 [12]: 1.56 µM (inactive)
GI50 [13]: 0.458 µM (active)
GI50 [14]: 0.711 µM (active)
GI50 [15]: 2.84 µM (inactive)
GI50 [16]: 1.63 µM (inactive)
GI50 [17]: 1.79 µM (inactive)

COC1(C2c3ccccc3CCN2C(=O)OC(C)(C)C)C(=O)C(c2ccccc2)=C1N(C)C (stereo not given)
GI50 [1]: 25.2 µM (inactive)
GI50 [2]: 43.3 µM (inactive)
GI50 [3]: 26.9 µM (inactive)
GI50 [4]: 21.5 µM (inactive)
GI50 [18]: 19.7 µM (inactive)
GI50 [5]: 44.8 µM (inactive)
GI50 [6]: 19.7 µM (inactive)
GI50 [7]: 25.7 µM (inactive)
GI50 [19]: 30.8 µM (inactive)
GI50 [8]: 53.7 µM (inactive)
GI50 [9]: 26.8 µM (inactive)
GI50 [10]: 19.1 µM (inactive)
GI50 [11]: 27.7 µM (inactive)
GI50 [12]: 17.1 µM (inactive)
GI50 [14]: 38.9 µM (inactive)
GI50 [16]: 33.5 µM (inactive)
GI50 [17]: 27.3 µM (inactive)

— ChEMBL document CHEMBL1201862, “PubChem BioAssay data set” (2004)
